# From ChEMBL document CHEMBL3885881, “DrugMatrix”
# Species on record: Rattus norvegicus
# Assay: DrugMatrix - Regimen: Daily Repeat
# Format: toxicity, organism-based, Sprague-Dawley
# Set-up: regimen Daily Repeat, gender Male, age 6-8 weeks
# Settings: in vivo, po, route oral GAVAGE, […]; for ABSOLUTE BASOPHIL / ABSOLUTE EOSINOPHIL / ABSOLUTE LYMPHOCYTE / ABSOLUTE MONOCYTE / ABSOLUTE SEGMENTED NEUTROPHIL / BASOPHIL / EOSINOPHIL / ERYTHROCYTE COUNT / HEMATOCRIT / HEMOGLOBIN / LEUKOCYTE COUNT / LYMPHOCYTE / MEAN CORPUSCULAR HEMOGLOBIN / MEAN CORPUSCULAR HEMOGLOBIN CONCENTRATION / MEAN CORPUSCULAR VOLUME / MONOCYTE / NEUTROPHIL / NUCLEATED RED BLOOD CELLS / PLATELET COUNT: tissue Blood; for ALANINE AMINOTRANSFERASE / ALBUMIN / ALKALINE PHOSPHATASE / ASPARTATE AMINOTRANSFERASE / BLOOD UREA NITROGEN / CARBON DIOXIDE / CHLORIDE / CHOLESTEROL / CREATINE PHOSPHOKINASE / CREATININE / GLUCOSE / LACTATE DEHYDROGENASE / LIPASE / PHOSPHORUS / POTASSIUM / SODIUM / TOTAL BILIRUBIN / TOTAL PROTEIN / URIC ACID: tissue Plasma
# [1] = 30 mg/kg, 120 h, dose level Low, time 5 day
# [2] = 2500 mg/kg, 72 h, dose level High, time 3 day
# [3] = 2500 mg/kg, 120 h, dose level High, time 5 day
smiles,measurement,setting,value
COC1=CC(=O)C[C@@H](C)[C@]12Oc1c(Cl)c(OC)cc(OC)c1C2=O [GRISEOFULVIN],ABSOLUTE BASOPHIL,[1],0 CELLS/uL
same,ABSOLUTE EOSINOPHIL,[1],0 CELLS/uL
same,ABSOLUTE LYMPHOCYTE,[1],12913.33 CELLS/uL
same,ABSOLUTE MONOCYTE,[1],48.67 CELLS/uL
same,ABSOLUTE SEGMENTED NEUTROPHIL,[1],1938 CELLS/uL
same,BASOPHIL,[1],0%
same,EOSINOPHIL,[1],0%
same,ERYTHROCYTE COUNT,[1],5.4 x10E6/uL
same,HEMATOCRIT,[1],33.57%
same,HEMOGLOBIN,[1],12.93 G/DL
same,LEUKOCYTE COUNT,[1],14.9 x10E3/uL
same,LYMPHOCYTE,[1],86.67%
same,MEAN CORPUSCULAR HEMOGLOBIN,[1],23.93 pg
same,MEAN CORPUSCULAR HEMOGLOBIN CONCENTRATION,[1],38.5 G/DL
same,MEAN CORPUSCULAR VOLUME,[1],62.1 fL
same,MONOCYTE,[1],0.33%
same,NEUTROPHIL,[1],13%
same,NUCLEATED RED BLOOD CELLS,[1],0 /100WBC
same,PLATELET COUNT,[1],1179 x10E3/uL
same,ALANINE AMINOTRANSFERASE,[1],63.67 u/L
same,ALBUMIN,[1],3.87 G/DL
same,ALKALINE PHOSPHATASE,[1],399.67 u/L
same,ASPARTATE AMINOTRANSFERASE,[1],90.33 u/L
same,BLOOD UREA NITROGEN,[1],15.33 mg/dL
same,CARBON DIOXIDE,[1],28.33 mmol/L
same,CHLORIDE,[1],101.67 MEQ/L
same,CHOLESTEROL,[1],66.33 mg/dL
same,CREATINE PHOSPHOKINASE,[1],384.67 u/L
same,CREATININE,[1],0.2 mg/dL
same,GLUCOSE,[1],154 mg/dL
same,LACTATE DEHYDROGENASE,[1],329.33 u/L
same,LIPASE,[1],10 u/L
same,PHOSPHORUS,[1],11.63 mg/dL
same,POTASSIUM,[1],6.32 MEQ/L
same,SODIUM,[1],143 MEQ/L
same,TOTAL BILIRUBIN,[1],0.2 mg/dL
same,TOTAL PROTEIN,[1],5.5 G/DL
same,URIC ACID,[1],1.43 mg/dL
same,ABSOLUTE BASOPHIL,[2],0 CELLS/uL
same,ABSOLUTE EOSINOPHIL,[2],109.33 CELLS/uL
same,ABSOLUTE LYMPHOCYTE,[2],15660.67 CELLS/uL
same,ABSOLUTE MONOCYTE,[2],63 CELLS/uL
same,ABSOLUTE SEGMENTED NEUTROPHIL,[2],2167 CELLS/uL
same,BASOPHIL,[2],0%
same,EOSINOPHIL,[2],0.67%
same,ERYTHROCYTE COUNT,[2],5.22 x10E6/uL
same,HEMATOCRIT,[2],32.37%
same,HEMOGLOBIN,[2],12.83 G/DL
same,LEUKOCYTE COUNT,[2],18 x10E3/uL
same,LYMPHOCYTE,[2],87%
same,MEAN CORPUSCULAR HEMOGLOBIN,[2],24.6 pg
same,MEAN CORPUSCULAR HEMOGLOBIN CONCENTRATION,[2],39.67 G/DL
same,MEAN CORPUSCULAR VOLUME,[2],62.07 fL
same,MONOCYTE,[2],0.33%
same,NEUTROPHIL,[2],12%
same,NUCLEATED RED BLOOD CELLS,[2],0 /100WBC
same,PLATELET COUNT,[2],1162 x10E3/uL
same,ALANINE AMINOTRANSFERASE,[2],57 u/L
same,ALBUMIN,[2],3.87 G/DL
same,ALKALINE PHOSPHATASE,[2],293.67 u/L
same,ASPARTATE AMINOTRANSFERASE,[2],75.67 u/L
same,BLOOD UREA NITROGEN,[2],14.33 mg/dL
same,CARBON DIOXIDE,[2],33.67 mmol/L
same,CHLORIDE,[2],98.33 MEQ/L
same,CHOLESTEROL,[2],107.67 mg/dL
same,CREATINE PHOSPHOKINASE,[2],199 u/L
same,CREATININE,[2],0.17 mg/dL
same,GLUCOSE,[2],144 mg/dL
same,LACTATE DEHYDROGENASE,[2],120 u/L
same,LIPASE,[2],11.67 u/L
same,PHOSPHORUS,[2],12.17 mg/dL
same,POTASSIUM,[2],6.74 MEQ/L
same,SODIUM,[2],142.47 MEQ/L
same,TOTAL BILIRUBIN,[2],0.2 mg/dL
same,TOTAL PROTEIN,[2],5.83 G/DL
same,URIC ACID,[2],1.47 mg/dL
same,ABSOLUTE BASOPHIL,[3],0 CELLS/uL
same,ABSOLUTE EOSINOPHIL,[3],34 CELLS/uL
same,ABSOLUTE LYMPHOCYTE,[3],11701.67 CELLS/uL
same,ABSOLUTE MONOCYTE,[3],201.67 CELLS/uL
same,ABSOLUTE SEGMENTED NEUTROPHIL,[3],562.67 CELLS/uL
same,BASOPHIL,[3],0%
same,EOSINOPHIL,[3],0.33%
same,ERYTHROCYTE COUNT,[3],5.46 x10E6/uL
same,HEMATOCRIT,[3],34.03%
same,HEMOGLOBIN,[3],13.2 G/DL
same,LEUKOCYTE COUNT,[3],12.5 x10E3/uL
same,LYMPHOCYTE,[3],93.67%
same,MEAN CORPUSCULAR HEMOGLOBIN,[3],24.23 pg
same,MEAN CORPUSCULAR HEMOGLOBIN CONCENTRATION,[3],38.8 G/DL
same,MEAN CORPUSCULAR VOLUME,[3],62.4 fL
same,MONOCYTE,[3],1.67%
same,NEUTROPHIL,[3],4.33%
same,NUCLEATED RED BLOOD CELLS,[3],0.33 /100WBC
same,PLATELET COUNT,[3],1293.67 x10E3/uL
same,ALANINE AMINOTRANSFERASE,[3],49.67 u/L
same,ALBUMIN,[3],4.17 G/DL
same,ALKALINE PHOSPHATASE,[3],316.33 u/L
same,ASPARTATE AMINOTRANSFERASE,[3],89.33 u/L
same,BLOOD UREA NITROGEN,[3],17.67 mg/dL
same,CARBON DIOXIDE,[3],24 mmol/L
same,CHLORIDE,[3],109 MEQ/L
same,CHOLESTEROL,[3],95.67 mg/dL
same,CREATINE PHOSPHOKINASE,[3],362.67 u/L
same,CREATININE,[3],0.28 mg/dL
same,GLUCOSE,[3],152.67 mg/dL
same,LACTATE DEHYDROGENASE,[3],489 u/L
same,LIPASE,[3],11.33 u/L
same,PHOSPHORUS,[3],11.23 mg/dL
same,POTASSIUM,[3],6.51 MEQ/L
same,SODIUM,[3],150.77 MEQ/L
same,TOTAL BILIRUBIN,[3],0.13 mg/dL
same,TOTAL PROTEIN,[3],6.2 G/DL
same,URIC ACID,[3],1.83 mg/dL
